Measurements: patent US20050276812A1, “Antibody-drug conjugates and methods” (Genentech, Inc., priority 2004, published 2005)

How the values were obtained:
[1] = system: SK-BR-3 and BT-474 breast cancer cells; experiment: in vitro cellular proliferation assay of free drug and drug-linker; format: cell-based
From the text: Pharmaceutical formulations of a therapeutic antibody-drug conjugate (ADC) may contain certain amounts of unreacted drug moiety (D), antibody-linker intermediate (Ab-L), and/or drug-linker intermediate (D-L), as a consequence of incomplete purification and separation of excess reagents, impurities, and by-products, in the process of making the ADC; or time/temperature hydrolysis or degradation upon storage of the bulk ADC or formulated ADC composition. […] Alternatively, or in addition to, it may contain a detectable amount of drug-linker intermediate DM1-SMCC. Alternatively, or in addition to, it may contain a detectable amount of the antibody, trastuzumab.
Efficacy of ADC were measured by a cell proliferation assay employing the following protocol (Promega Corp. Technical Bulletin TB288; Mendoza et al (2002) Cancer Res. 62:5485-5488): • 1. An aliquot of 100 μl of cell culture containing about 10^4 cells (SKBR-3, BT474, MCF7 or MDA-MB-468) in medium was deposited in each well of a 96-well, opaque-walled plate. • 2. Control wells were prepared containing medium and without cells. • 3. ADC was added to the experimental wells and incubated for 3-5 days. • 4. The plates were equilibrated to room temperature for approximately 30 minutes. • 5. A volume of CellTiter-Glo Reagent equal to the volume of cell culture medium present in each well was added. • 6. The contents were mixed for 2 minutes on an orbital shaker to induce cell lysis. • 7. The plate was incubated at room temperature for 10 minutes to stabilize the luminescence signal. • 8. Luminescence was recorded and reported in graphs as RLU=relative luminescence units.

[2] = 5-day acute toxicity study in rats; format: in vivo, female Sprague-Dawley rats; conditions: free DM1, 160 μg/kg (Group 6)
Experimental: Antibody-drug conjugates and an ADC-minus control, “Vehicle”, were evaluated in an acute toxicity rat model. Toxicity of ADC was investigated by treatment of female Sprague-Dawley rats with the ADC and subsequent inspection and analysis of the effects on various organs. Based on gross observations (body weights), clinical pathology parameters (serum chemistry and hematology) and histopathology, the toxicity of ADC may be observed, characterized, and measured.
Body weight was measured daily. Clinical chemistry, serum enzymes and hematology analysis was conducted on days 3 and 5; concluding with complete necropsy with histopathological assessment.
Animals were injected on day 1, complete chemistry and hematology profiles were obtained at baseline, day 3 and day 5 and a complete necropsy was performed on day 5. Routine histology was performed on three random animals for each group for the following tissues: sternum, liver, kidney, thymus, spleen, large and small intestine.

Row | Compound | IC50 [1] [nM] | severity of toxicity [2] | times less potent in cell killing than free drug DM1 [1]
1 | COc1cc2cc(c1Cl)N(C)C(=O)C[C@H](OC(=O)[C@H](C)N(C)C(=O)CCS)[C@]1(C)O[C@H]1[C@H](C)[C@@H]1C[C@@](O)(NC(=O)O1)[C@H](OC)/C=C/C=C(\C)C2 [DM1, N^2′-deacetyl-N^2′-(3-mercapto-1-oxopropyl)-maytansine] | 4.5 | less than that seen in animals of Group 2 | –
2 | COc1cc2cc(c1Cl)N(C)C(=O)C[C@H](OC(=O)[C@H](C)N(C)C(=O)CCSC1CC(=O)N(CC3CCC(C(=O)ON4C(=O)CCC4=O)CC3)C1=O)[C@]1(C)O[C@H]1[C@H](C)[C@@H]1C[C@@](O)(NC(=O)O1)[C@H](OC)/C=C/C=C(\C)C2 (stereo partly shown) [DM1-SMCC] | 50 | – | about 20 times
